Experimental data from patent publication US20230140290A1, “SALICYLAMIDE DERIVATIVES AND RELATED METHODS OF MAKING” (THE BOARD OF REGENTS OF THE UNIVERSITY OF TEXAS SY, priority 2020, published 2023).
“And” between values parts separate entries of the source, which are not always exact repeats. Equal values may be shown once.

Columns and labels:
HAdV5-GFP [1] = assay: Plaque assay (inhibition of HAdV plaque formation); type: cell-based, HAdV-5; conditions: for Selectivity index (SI): ratio of CC50 to IC50 in plaque assay; for inhibition at 10 µM: read-out: Plaque Assay (%) Inhibition (10 μM)
Outline: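 Cells at 80-90% confluency infected with HAdV5-GFP at 0.06 vp/cell, rocked 2 h at 37° C, then washed with PBS. Compounds tested at 10 μM and in dose-response from 10 to 0.3 μM, included in the post-infection mixture.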

A549 cells = assay: Cytotoxicity assay (AlamarBlue); conditions: read-out: CC50 (μM), cytotoxic concentration 50%; A549 cell line, 48 h
Experimental: (§1) Cytotoxicity Assay. The cytotoxicity of the compounds was analyzed by commercial kit AlamarBlue® (Invitrogen, Ref. DAL1025). A549 cells at a density of 5×10^3 cells per well in 96-well plates were seeded. […] Cells were then incubated at 37° C. for 48 h following the kit protocol. The cytotoxic concentration 50 (CC50) value was obtained using the statistical package GraphPad Prism. This assay was performed in duplicate.

wild-type HAdV5 [2] = assay: HAdV DNA quantification by real-time PCR (DNA replication); type: cell-based, HAdV-5; conditions: 24 h
Experimental: DNA Quantification by Real-Time PCR. […] Infected cells were incubated 24 h at 37° C. in 500 μL of complete DMEM containing 25 μM of either compounds or the same volume of DMSO (positive control). All samples were done in duplicate. After 24 h of incubation at 37° C., DNA was purified from the cell lysate with the QIAamp DNA Mini Kit (QIAGEN, Valencia, Calif.) following the manufacturer's instructions. TaqMan primers and probes for a common region of the HAdV5 were designed with the GenScript Real-Time PCR (TaqMan) Primer Design software (GenScript). […] Real-time PCR mixtures consisted of 9.5 μL of the purified DNA, AQ1 and AQ2 at a concentration of 200 nM each and Probe at a concentration of 50 nM in a total volume of 25 μL. The PCR cycling protocol was 95° C. for 3 min followed by 40 cycles of 95° C. for 10 s and 60° C. for 30 s. Human glyceraldehyde-3-phosphate dehydrogenase (GAPDH) gene was used as internal control. Oligonucleotides sequences for GAPDH and conditions were those previously reported by Henke-Gendo et al. (2012).
For quantification, gene fragments from hexon, and GAPDH were cloned into the pGEM-T Easy vector (Promega) and known concentrations of template were used to generate a standard curve in parallel for each experiment. All assays were performed in thermal cycler LightCycler® 96 System (Roche).
(§2) HAdV DNA Quantification by Real-Time PCR. […] All samples were done in duplicate. After 24 h of incubation at 37° C., DNA was purified from the cell lysate with the E.Z.N.A.® Tissue DNA Kit (Omega Bio-tek, Norcross, Ga.) following the manufacturer's instructions. TaqMan primers and probes for a common region of the HAdV5 were designed with the GenScript Real-Time PCR (TaqMan) Primer Design software (GenScript). […] Real-time PCR mixtures consisted of 9.5 μL of the purified DNA, AQ1 and AQ2 at a concentration of 200 nM each and Probe at a concentration of 50 nM in a total volume of 25 μL. The PCR cycling protocol was 95° C. for 3 min followed by 40 cycles of 95° C. for 10 s and 60° C. for 30 s. Human glyceraldehyde-3-phosphate dehydrogenase (GAPDH) gene was used as internal control. Oligonucleotides sequences for GAPDH and conditions were those previously reported by Henke-Gendo et al. (2012).
as §2, with “DNA” for “HAdV DNA”

HAdV5-GFP [3] = assay: Entry assay (HAdV5-mediated GFP expression); type: cell-based, HAdV-5; conditions: for inhibition at 50 µM: A549, 48 h, read-out: (%) Inhibition Entry Assay (50 μM)
Experimental: Entry Assay. The anti-HAdV activity was measured in an entry assay using human A549 epithelial cells (3×10^5 cells/well in coming black wall, clear bottom 96-well plates) infected with HAdV5-GFP (2000 vp/cell) in the presence 50 μM of the candidates and in a dose-response assay. A standard infection curve was generated in parallel by infecting cells in the absence of compounds using serial 2-fold dilutions of virus. All reactions were done in triplicate. Cells, virus, and drugs were incubated for 48 h at 37° C. and 5% CO2.

wild-type HAdV5 [4] = assay: Nuclear-associated HAdV genomes (real-time PCR); type: cell-based, HAdV-5
Experimental: (§3) Nuclear-Associated HAdV Genomes. The nuclear delivery of HAdV genomes was assessed by real-time PCR following nuclear isolation from infected cells. […] Forty-five minutes after infection, A549 cells were trypsinized and collected and then washed twice with PBS. Then, cytoplasmic and nuclear fractions were separated using a hypotonic buffer solution and NP-40 detergent. The cell pellet was resuspended in 500 μL of 1×hypotonic buffer (20 mM Tris-HCl pH 7.4, 10 mM NaCl, 3 mM MgCl2) and incubated for 15 min at 4° C. Then, 25 μL of NP-40 was added and the samples were vortexed. The homogenates were centrifuged for 10 min at 835 g at 4° C. Following the removal of the cytoplasmic fraction (supernatant), HAdV DNA was isolated from the nuclear fraction (pellet) and from the cytoplasmic fraction using the QIAamp DNA Mini Kit (QIAGEN, Valencia, Calif.).
as §3, with “E.Z.N.A.® Tissue” for “QIAamp”, “DNA” for “DNA Mini”, “(Omega Bio-tek, Norcross, Ga.).” for “(QIAGEN, Valencia, Calif.).”

[5] = Cytotoxicity assay (AlamarBlue); conditions: human, A549 cells
Experimental: as §1

[6] = read-out: Plaque Assay IC50 (μM), HAdV5-GFP, low MOI, 293β5 cell line
[7] = A549, read-out: IC50 Entry Assay (μM), HAdV5-GFP, high MOI, A549 cell line
[8] = FIG. 5A, 45 min post-infection, 10-fold plaque IC50
[9] = HAdV5-GFP, low MOI, 293β5 cell line, read-out: Plaque Assay IC50

Structure (SMILES): O=C(Nc1ccc(NCc2ccc(O)nc2)cc1Cl)c1cc(Cl)ccc1O [Compound 112, 5-Chloro-N-(2-chloro-4-(((6-hydroxypyridin-3-yl)methyl)amino)phenyl)-2-hydroxybenzamide]
- Selectivity index (SI) (HAdV5-GFP [1]): 126.3
- inhibition at 10 µM (HAdV5-GFP [1]): 100%
- IC50 (HAdV5-GFP [1]; [6]): 0.78 µM
- CC50 (A549 cells): 98.5 µM
- inhibition of HAdV-5 DNA replication (qPCR) (wild-type HAdV5 [2]; FIG. 6A, 10-fold plaque IC50): low inhibition
- inhibition at 50 µM (HAdV5-GFP [3]): 51.7 ± 9.8%
- IC50 (HAdV5-GFP [3]; [7]): > 50 µM
- amount of nuclear-associated HAdV genomes versus DMSO (wild-type HAdV5 [4]; [8]): significant reductions

Structure (SMILES): O=C(Nc1ccc(NCc2ccncc2)cc1Cl)c1cc(Cl)ccc1O [Compound 108, 5-Chloro-N-(2-chloro-4-((pyridin-4-ylmethyl)amino)phenyl)-2-hydroxybenzamide]
- IC50 (HAdV5-GFP [1]; [9]): 1.66 to 4.78 µM
- Selectivity index (SI) (HAdV5-GFP [1]): 24.6
- inhibition at 10 µM (HAdV5-GFP [1]): 100%
- IC50 (HAdV5-GFP [1]; {}): 2.66 ± 0.17 µM
- CC50 at 48 h [5]: 65.3 to 126 µM
- CC50 (A549 cells): 65.3 ± 5.7 µM

Structure (SMILES): O=C(Nc1cc(F)cc(C(F)(F)F)c1)c1ccc(Cl)cc1O [Compound 20, 4-Chloro-N-(3-fluoro-5-(trifluoromethyl)phenyl)-2-hydroxybenzamide]
- Selectivity index (SI) (HAdV5-GFP [1]): 186.8
- inhibition at 10 µM (HAdV5-GFP [1]): 96.8 ± 1.9%
- IC50 (HAdV5-GFP [1]; [6]): 0.11 µM
- CC50 (A549 cells): 20.6 µM
- inhibition of HAdV-5 DNA replication (qPCR) (wild-type HAdV5 [2]; FIG. 4, concentrations by CC50 (2-50 μM)): low inhibition
- inhibition at 50 µM (HAdV5-GFP [3]): 100%
- IC50 (HAdV5-GFP [3]; [7]): 0.26 ± 0.09 µM
- amount of nuclear-associated HAdV genomes versus DMSO (wild-type HAdV5 [4]; FIG. 3, 45 min post infection, concentrations by CC50 (2-50 μM)): partially inhibited

Structure (SMILES): O=C(Nc1ccc(NCc2ccc(O)cc2)cc1Cl)c1cc(Cl)ccc1O [Compound 101, 5-Chloro-N-(2-chloro-4-((4-hydroxybenzyl)amino)phenyl)-2-hydroxybenzamide]
- Selectivity index (SI) (HAdV5-GFP [1]): 104.1
- inhibition at 10 µM (HAdV5-GFP [1]): 80.7 ± 9.1%
- IC50 (HAdV5-GFP [1]; [6]): 1.11 µM
- CC50 (A549 cells): 116 µM
- inhibition of HAdV-5 DNA replication (qPCR) (wild-type HAdV5 [2]; FIG. 6A, 10-fold plaque IC50): low inhibition
- inhibition at 50 µM (HAdV5-GFP [3]): 83.3%
- IC50 (HAdV5-GFP [3]; [7]): 15.2 to 30.8 µM
- IC50 (HAdV5-GFP [3]; {}): 25 ± 6.9 µM
- amount of nuclear-associated HAdV genomes versus DMSO (wild-type HAdV5 [4]; [8]): significant reductions

Structure (SMILES): C[C@@H](NC(=O)c1cc(Cl)ccc1O)c1ccc(F)cc1 [Compound 49, (R)-5-Chloro-N-(1-(4-fluorophenyl)ethyl)-2-hydroxybenzamide]
- Selectivity index (SI) (HAdV5-GFP [1]): 57.8 and 66.2
- inhibition at 10 µM (HAdV5-GFP [1]): 100%
- IC50 (HAdV5-GFP [1]; [6]): 3.02 µM
- CC50 at 48 h [5]: > 200 µM

Structure (SMILES): CC(C)(CCO)Nc1ccc(NC(=O)c2cc(Cl)ccc2O)c(Cl)c1 [Compound 118, 5-Chloro-N-(2-chloro-4-((4-hydroxy-2-methylbutan-2-yl)amino)phenyl)-2-hydroxybenzamide]
- Selectivity index (SI) (HAdV5-GFP [1]): 188.3
- inhibition at 10 µM (HAdV5-GFP [1]): 92.3%
- IC50 (HAdV5-GFP [1]; [6]): 0.9 µM
- CC50 (A549 cells): 170 ± 4.2 µM
- inhibition of HAdV-5 DNA replication (qPCR) (wild-type HAdV5 [2]; FIG. 6A, 10-fold plaque IC50): low inhibition
- inhibition at 50 µM (HAdV5-GFP [3]): 42.1 ± 3%
- IC50 (HAdV5-GFP [3]; [7]): > 50 µM
- amount of nuclear-associated HAdV genomes versus DMSO (wild-type HAdV5 [4]; [8]): no significant differences

Structure (SMILES): O=C(Nc1ccc(NCc2cccnc2Cl)cc1Cl)c1cc(Cl)ccc1O [Compound 109, 5-Chloro-N-(2-chloro-4-(((2-chloropyridin-3-yl)methyl)amino)phenyl)-2-hydroxybenzamide]
- Selectivity index (SI) (HAdV5-GFP [1]): 21.0
- inhibition at 10 µM (HAdV5-GFP [1]): 100%
- CC50 at 48 h [5]: 65.3 to 126 µM
- CC50 (A549 cells): 100 ± 29.8 µM

Structure (SMILES): CC(C)(NC(=O)c1cc(Cl)ccc1O)c1ccc(F)cc1 [Compound 51, 5-Chloro-N-(2-(4-fluorophenyl)propan-2-yl)-2-hydroxybenzamide]
- Selectivity index (SI) (HAdV5-GFP [1]): 39.1 and 57.8
- inhibition at 10 µM (HAdV5-GFP [1]): 100%
- IC50 (HAdV5-GFP [1]; [6]): 3.46 µM
- CC50 at 48 h [5]: > 200 µM

Structure (SMILES): O=C(Nc1ccc(NCc2cccc(Br)n2)cc1Cl)c1cc(Cl)ccc1O [Compound 111, N-(4-(((6-Bromopyridin-2-yl)methyl)amino)-2-chlorophenyl)-5-chloro-2-hydroxybenzamide]
- IC50 (HAdV5-GFP [1]; [9]): 1.66 to 4.78 µM
- Selectivity index (SI) (HAdV5-GFP [1]): 40.8
- inhibition at 10 µM (HAdV5-GFP [1]): 100%
- IC50 (HAdV5-GFP [1]; {}): 2.26 ± 0.05 µM
- CC50 at 48 h [5]: 65.3 to 126 µM
- CC50 (A549 cells): 92.3 ± 9.5 µM

Structure (SMILES): Nc1ccn(C[C@@H](CO)OCP(=O)(O)O)c(=O)n1 [cidofovir, reference compound]
- Selectivity index (SI) (HAdV5-GFP [1]): 7.5
- IC50 (HAdV5-GFP [1]; [6]): 24.1 ± 5.9 µM
- CC50 at 48 h [5]: 50.1 ± 9.8 µM

Structure (SMILES): O=C(Nc1ccc(NCc2cnccc2Cl)cc1Cl)c1cc(Cl)ccc1O [Compound 110, 5-Chloro-N-(2-chloro-4-(((4-chloropyridin-3-yl)methyl)amino)phenyl)-2-hydroxybenzamide]
- IC50 (HAdV5-GFP [1]; [9]): 1.66 to 4.78 µM
- Selectivity index (SI) (HAdV5-GFP [1]): 75.7
- inhibition at 10 µM (HAdV5-GFP [1]): 100%
- IC50 (HAdV5-GFP [1]; {}): 1.66 ± 0.42 µM
- CC50 at 48 h [5]: 65.3 to 126 µM
- CC50 (A549 cells): 126 ± 25.1 µM

Structure (SMILES): CC(CCO)Nc1ccc(NC(=O)c2cc(Cl)ccc2O)c(Cl)c1 (stereo not shown) [Compound 119, 5-Chloro-N-(2-chloro-4-((4-hydroxybutan-2-yl)amino)phenyl)-2-hydroxybenzamide]
- Selectivity index (SI) (HAdV5-GFP [1]): 166.7
- inhibition at 10 µM (HAdV5-GFP [1]): 96.9 ± 2.4%
- IC50 (HAdV5-GFP [1]; [6]): 1.2 µM
- CC50 (A549 cells): 200 µM
- inhibition of HAdV-5 DNA replication (qPCR) (wild-type HAdV5 [2]; FIG. 6A, 10-fold plaque IC50): low inhibition
- inhibition at 50 µM (HAdV5-GFP [3]): 88.6%
- amount of nuclear-associated HAdV genomes versus DMSO (wild-type HAdV5 [4]; [8]): no significant differences
